For this assay, the system named is rabbits (New Zealand White). Put plainly: Ocular hypotensive effect in rabbits. In kind it is in vivo, rabbit. The note with it: male New Zealand White rabbits, 0.04 mL eye drop, concentration of 1% (w/v) or lower, maximum ocular hypotensive rate vs vehicle-treated contralateral eye. On the procedure:
The compound of the present invention was administered to rabbits (New Zealand White, sex: male, 3 to 6 per group) and evaluated for its ocular hypotensive effect.
Each test compound was dissolved in a vehicle 1 (1.04 g of sodium dihydrogen phosphate dihydrate and 0.5 g of sodium chloride dissolved in purified water and then adjusted to pH 7.0 with sodium hydroxide to make the total amount to 100 mL) or a vehicle 2 (2% (w/v) aqueous boric acid solution) to prepare a test compound solution with a predetermined concentration.
The intraocular pressures of the rabbits were measured using Tiolat TonoVet handheld tonometer immediately before administration of test compound. The test compound solution and the vehicle were dropped at a volume of 0.04 mL to one eye and the contralateral eye, respectively, and the intraocular pressures were measured over time in the same way as above. The rate of the intraocular pressure of the eye receiving the test compound solution to that of the eye receiving the vehicle was calculated as an ocular hypotensive rate.

Structures can show the parent of a compound that is named as a salt.

Regarding `C[C@H](CNCCc1ccc(N)cc1)NS(=O)(=O)c1ccc2cnccc2c1.Cl.Cl.Cl` [Example 69, (R)—N-{1-(4-aminophenethylamino)propan-2-yl}isoquinoline-6-sulfonamide trihydrochloride], the Ocular hypotensive activity result was “++ (maximum ocular hypotensive rate of 15% or more)”.

For `C[C@H](CNCCc1ccc(N(C)C)cc1)NS(=O)(=O)c1ccc2cnccc2c1.Cl` [Example 71, (R)—N-{1-(4-dimethylaminophenethylamino)propan-2-yl}isoquinoline-6-sulfonamide hydrochloride], the Ocular hypotensive activity result is recorded as “++ (maximum ocular hypotensive rate of 15% or more)”.

Take `C[C@H](CNCCc1ccc(NC(N)=O)cc1)NS(=O)(=O)c1ccc2cnccc2c1.Cl` [Example 72, (R)—N-{1-(4-ureidophenethylamino)propan-2-yl}isoquinoline-6-sulfonamide hydrochloride]: the Ocular hypotensive activity entry was “+ (maximum ocular hypotensive rate of 5% or more and less than 15%)”.

On to `C[C@H](CNCCC#N)NS(=O)(=O)c1ccc2cnccc2c1.Cl` [Example 73, (R)—N-{1-(2-cyanoethylamino)propan-2-yl}isoquinoline-6-sulfonamide hydrochloride], for which the Ocular hypotensive activity result is on record as “++ (maximum ocular hypotensive rate of 15% or more)”.

Regarding `C[C@H](CNCCc1cc2ccccc2[nH]1)NS(=O)(=O)c1ccc2cnccc2c1.Cl` [Example 74, (R)—N-[1-{2-(1H-indol-2-yl)ethylamino}propan-2-yl]isoquinoline-6-sulfonamide hydrochloride], the Ocular hypotensive activity entry is recorded as “++ (maximum ocular hypotensive rate of 15% or more)”.

Regarding `C[C@H](CNCCc1cc2ccccc2o1)NS(=O)(=O)c1ccc2cnccc2c1` [Example 75, (R)—N-[1-{(2-(benzofuran-2-yl)ethylamino}propan-2-yl]isoquinoline-6-sulfonamidedihydrochloride], the Ocular hypotensive activity entry is recorded as “++ (maximum ocular hypotensive rate of 15% or more)”.

For the compound `C[C@H](CNCCc1ccc(F)cc1)NS(=O)(=O)c1cc2ccncc2cc1Br.Cl` [Example 76, (R)-7-bromo-N-{1-(4-fluorophenethylamino)propan-2-yl}-isoquinoline-6-sulfonamide hydrochloride], the Ocular hypotensive activity result is given as “++ (maximum ocular hypotensive rate of 15% or more)”.

In the case of `C[C@H](CNCCc1ccc(F)cc1)NS(=O)(=O)c1ccc2cnccc2c1Br.Cl` [Example 77, (R)-5-bromo-N-{1-(4-fluorophenethylamino)propan-2-yl}-isoquinoline-6-sulfonamide hydrochloride], the Ocular hypotensive activity entry was “+ (maximum ocular hypotensive rate of 5% or more and less than 15%)”.

Take `C=C(C)CNC[C@@H](C)NS(=O)(=O)c1ccc2cnccc2c1.Cl` [Example 78, (R)—N-{1-(2-methylallylamino)propan-2-yl}isoquinoline-6-sulfonamide hydrochloride]: the Ocular hypotensive activity entry is “++ (maximum ocular hypotensive rate of 15% or more)”.

As to `Cc1ncsc1CCNC[C@@H](C)NS(=O)(=O)c1ccc2cnccc2c1` [Example 79, (R)—N-[1-{2-(4-methylthiazol-5-yl)ethylamino}propan-2-yl]isoquinoline-6-sulfonamide dihydrochloride], the Ocular hypotensive activity entry is on record as “++ (maximum ocular hypotensive rate of 15% or more)”.

`C[C@H](CNCCCc1c[nH]c2ccccc12)NS(=O)(=O)c1ccc2cnccc2c1` [Example 80, (R)—N-[1-{3-(1H-indol-3-yl)propylamino}propan-2-yl]isoquinoline-6-sulfonamide dihydrochloride]: the Ocular hypotensive activity result is on record as “++ (maximum ocular hypotensive rate of 15% or more)”.

As to `C[C@H](CNCCc1ccccn1)NS(=O)(=O)c1ccc2cnccc2c1.Cl` [Example 81, (R)—N-[1-{2-(pyridin-2-yl)ethylamino}propan-2-yl]isoquinoline-6-sulfonamide hydrochloride], the Ocular hypotensive activity entry is “++ (maximum ocular hypotensive rate of 15% or more)”.

Turning to `C[C@H](CNCC(C)(O)c1ccccc1)NS(=O)(=O)c1ccc2cnccc2c1.Cl` (stereo partly drawn) [Example 85, N-{(2R)-1-(2-hydroxy-2-phenylpropylamino)propan-2-yl}isoquinoline-6-sulfonamide hydrochloride], the Ocular hypotensive activity entry is given as “++ (maximum ocular hypotensive rate of 15% or more)”.

Take `C[C@H](CNCC(O)c1cccnc1)NS(=O)(=O)c1ccc2cnccc2c1` (stereo partly drawn) [Example 88, N-[(2R)-1-{2-hydroxy-2-(pyridin-3-yl)ethylamino}propan-2-yl]isoquinoline-6-sulfonamide dihydrochloride]: the Ocular hypotensive activity result was “+ (maximum ocular hypotensive rate of 5% or more and less than 15%)”.

For `C[C@H](CNCC(O)c1cccc(Cl)c1)NS(=O)(=O)c1ccc2cnccc2c1` (stereo partly drawn) [Example 91, N-[(2R)-1-{2-(3-chlorophenyl)-2-hydroxyethylamino}propan-2-yl]isoquinoline-6-sulfonamide dihydrochloride], the Ocular hypotensive activity entry is given as “++ (maximum ocular hypotensive rate of 15% or more)”.

For the compound `C[C@H](CNCCc1ccc(-c2ccccc2)cc1)NS(=O)(=O)c1ccc2cnccc2c1` [Example 92, (R)—N-[1-{2-(biphenyl-4-yl)ethylamino}propan-2-yl]isoquinoline-6-sulfonamide dihydrochloride], the Ocular hypotensive activity result is “++ (maximum ocular hypotensive rate of 15% or more)”.

Regarding `C[C@H](CNCCc1ccc(-c2ccncc2)cc1)NS(=O)(=O)c1ccc2cnccc2c1` [Example 93, (R)—N-[1-{4-(pyridin-4-yl)phenethylamino}propan-2-yl]isoquinoline-6-sulfonamide trihydrochloride], the Ocular hypotensive activity entry was “++ (maximum ocular hypotensive rate of 15% or more)”.

For `C[C@H](CNCCc1c[nH]nn1)NS(=O)(=O)c1ccc2cnccc2c1.Cl` [Example 94, (R)—N-[1-{2-(1H-1,2,3-triazol-4-yl)ethylamino}propan-2-yl]isoquinoline-6-sulfonamide hydrochloride], the Ocular hypotensive activity result is given as “++ (maximum ocular hypotensive rate of 15% or more)”.

Turning to `C[C@H](CNCCc1nnn[nH]1)NS(=O)(=O)c1ccc2cnccc2c1` [Example 95, (R)—N-[1-{2-(1H-tetrazol-5-yl)ethylamino}propan-2-yl]isoquinoline-6-sulfonamide dihydrochloride], the Ocular hypotensive activity result was “+ (maximum ocular hypotensive rate of 5% or more and less than 15%)”.

On to `CCCCNC[C@@H](C)N(CC)S(=O)(=O)c1ccc2cnccc2c1.Cl` [Example 96, (R)—N-[1-(butylamino)propan-2-yl]-N-ethylisoquinoline-6-sulfonamide hydrochloride], for which the Ocular hypotensive activity result is listed as “++ (maximum ocular hypotensive rate of 15% or more)”.

Regarding `C[C@H](CNCCc1ccccc1)N(CCO)S(=O)(=O)c1ccc2cnccc2c1` [Example 97, (R)—N-(2-hydroxyethyl)-N-{1-(phenethylamino)propan-2-yl}isoquinoline-6-sulfonamide dihydrochloride], the Ocular hypotensive activity result is reported as “++ (maximum ocular hypotensive rate of 15% or more)”.

With `C[C@H](CN(C)CCc1ccccc1)NS(=O)(=O)c1ccc2cnccc2c1` [Example 99, (R)—N-[1-{methyl(phenethyl)amino}propan-2-yl]isoquinoline-6-sulfonamide dihydrochloride], the Ocular hypotensive activity result was “++ (maximum ocular hypotensive rate of 15% or more)”.

For the origin of these results see patent publication US8883792B2, “Substituted isoquinoline derivative” (D. Western Therapeutics Institute, Inc., priority 2010, dated 2014).
